The data set relates to human serum proteins. The experiment in a line: Binding to human serum proteins, 30 min incubation. The conditions noted are these: 37 °C. In kind it is in vitro ADME. The method, then:
The lipophilicity (LogDoctanol/PBS) and protein binding of the four radiotracers in human serum were determined as described in the Supplemental Data. […]
minimum conjugate amount. Briefly, the Ge-68/Ga-68 generator was eluted with 5 mL HCl 0.1 N and the eluate (~300 MBq) was loaded onto a cation exchange column (Strata-XC, Phenomenex). Gallium-68 was eluted with 700 μL of a mixture of 5.5 M NaCl / 0.1 M HCl (prepared by mixing 0.530 mL of ultrapure 30% aq. HCl and 49.5 mL of 5.5M NaCl) directly into a vial containing 400 μL of 1.8 M sodium acetate buffer (pH 4.3) for DOTA.SA.FAPi or 2 mL 1.45 M HEPES (pH 4.1) for DOTAGA.(SA.FAPi)2, 2 mL H2O (only in case of DOTA.SA.FAPi), 200 μL of EtOH, and 20 μg (approximately 20 nmol) of the conjugate, followed by Sep-Pak C-18 purification to remove uncomplexed gallium-68. The purified [68Ga]Ga-DOTA.SA.FAPi and [68Ga]Ga-DO,TAGA.(SA.FAPi)2 were eluted in 2.7 mL of a solution of 12% EtOH in PBS. […]
The 68Ga- and 177Lu-labelled radiotracers (20 pmol; 0.3 MBq) were incubated with commercially available human serum (0.5 mL) at 37 °C for 30 min. […] After careful separation of the two phases, the respective activities were measured in a gamma counter, followed by determination of the percentage of the radiotracer that bound […]

With `N#C[C@@H]1CC(F)(F)CN1C(=O)CNC(=O)c1ccnc2ccc(OCCCCNc3c(NCCNC(=O)CN4CCN(CC(=O)[O-])CCN(CC(=O)[O-])CCN(CC(=O)[O-])CC4)c(=O)c3=O)cc12.[68Ga+3]` [[^68Ga]Ga-DOTA.SA.FAPi], the “Percentage of human serum protein bound activity” value is 10.6 ± 3.9%.

Regarding `N#C[C@@H]1CC(F)(F)CN1C(=O)CNC(=O)c1ccnc2ccc(OCCCCNc3c(NCCNC(=O)CN4CCN(CC(=O)[O-])CCN(CC(=O)[O-])CCN(CC(=O)[O-])CC4)c(=O)c3=O)cc12.[177Lu+3]` [[^177Lu]Lu-DOTA.SA.FAPi], the “Percentage of human serum protein bound activity” value was 9.9 ± 4.4%.

The record behind these values is article PMC11243320, “Tailoring Fibroblast-Activation Protein Targeting for Theranostics: A Comparative Preclinical Evaluation of the ^68Ga- and ^177Lu-Labeled Monomeric and Dimeric Fibroblast-Activation Protein Inhibitors DOTA.SA.FAPi and DOTAGA.(SA.FAPi)2” (Molecules, 2024).
